{"source": "ChEMBL document CHEMBL2203214", "about": "“Polyether ionophores-promising bioactive molecules for cancer therapy” (Bioorg Med Chem Lett, 2012)", "key": {"[1]": {"assay": "Toxicity in subchronic oral dosed dog after 3 months", "type": "organism-based, Canis lupus familiaris", "settings": "in vivo"}, "[2]": {"assay": "Toxicity in chronic oral dosed mouse after 2 years", "type": "organism-based", "settings": "in vivo"}, "[3]": {"assay": "Toxicity in chronic oral dosed rat after 2 years", "type": "organism-based", "settings": "in vivo"}, "[4]": {"assay": "Toxicity in subchronic oral dosed rat after 3 months", "type": "organism-based", "settings": "in vivo"}, "[5]": {"assay": "Toxicity in […] oral dosed dog after 1 year", "type": "organism-based, Canis lupus familiaris", "settings": "in vivo"}, "[6]": {"assay": "Antiproliferative activity against human NCI-H929 cells assessed as growth inhibition at 0.5 uM", "type": "functional", "settings": "read-out: GI"}, "SNU-C1": {"system": "SNU-C1", "assay": "Antiproliferative activity against human SNU-C1 cells assessed as growth inhibition at 0.5 uM", "type": "functional", "settings": "read-out: GI"}, "[7]": {"assay": "Antiproliferative activity against human SCC cells assessed as non-viable cell level", "type": "functional"}, "[8]": {"assay": "Cell cycle arrest in human SCC cells assessed as accumulation at G1/G0 phase after 24 hrs relative to control", "type": "functional, cell-based"}, "MDR [9]": {"system": "MDR", "assay": "Inhibition of MDR in human KB-C4 cells assessed as increase of vinblastine accumulation preincubated for 30 mins before vinblastine addition measured after drug washout relative to control", "type": "cell-based"}, "MDR [10]": {"system": "MDR", "assay": "Inhibition of MDR in human KB-C4 cells assessed as increase of vinblastine accumulation after 1 hr relative to control", "type": "cell-based"}, "[11]": {"assay": "Inhibition of vinblastine binding to human KB-C4 cells", "type": "functional, cell-based"}, "[12]": {"assay": "Induction of apoptosis in malignant lymphocyte after 48 hrs", "type": "functional"}, "[13]": {"assay": "Potentiation of colchicine-induced cytotoxicity in human KB-C4 cells at 1 ug/mL relative to control", "type": "functional"}, "PC-3": {"system": "PC-3", "assay": "Antiproliferative activity against human PC3 cells after 48 hrs", "type": "functional, cell-based", "settings": "PC-3, 48 h"}, "[14]": {"assay": "Antiproliferative activity against human VCaP cells", "type": "functional, cell-based"}}, "note": "pEC50, pIC50: −log10 of the molar value."}
{"molecule": "CC[C@@]1([C@@H]2O[C@@H]([C@H]3O[C@@](O)(CO)[C@H](C)C[C@@H]3C)C[C@@H]2C)CC[C@H]([C@]2(C)CC[C@]3(C[C@H](O)[C@@H](C)[C@@H]([C@@H](C)[C@@H](OC)[C@H](C)C(=O)O)O3)O2)O1", "note": "[MONENSIN]", "values": [{"measurement": "NOAEL at 3 months", "setting": "[1]", "result": 5, "unit": "mg/kg/day"}, {"measurement": "NOAEL at 2 years", "setting": "[2]", "result": 1.3, "unit": "mg/kg/day"}, {"measurement": "NOAEL at 2 years", "setting": "[3]", "result": 1.4, "unit": "mg/kg/day"}, {"measurement": "NOAEL at 3 months", "setting": "[4]", "result": 2, "unit": "mg/kg"}, {"measurement": "NOAEL at 1 year", "setting": "[5]", "result": 1.25, "unit": "mg/kg/day"}, {"measurement": "inhibition of growth at 0.5 µM", "setting": "[6]", "result": 50, "unit": "%"}, {"measurement": "inhibition of growth at 0.5 µM", "setting": "SNU-C1", "result": 50, "unit": "%"}]}
{"molecule": "CCC[C@H](O)[C@@]1(CC)C[C@@H](C)[C@](O)([C@]2(C)C[C@H](C)[C@@H]([C@@H](CC)C(=O)[C@@H](C)[C@@H](O)[C@H](C)[C@H]3O[C@@](O)([C@H](CC)C(=O)O)[C@@H](C)[C@H](O)[C@H]3CC)O2)O1", "note": "[INOSTAMYCIN]", "values": [{"measurement": "Activity", "setting": "[7]", "result": "<1", "unit": "%"}, {"measurement": "fold change (FC)", "setting": "[8]", "result": 1.2}, {"measurement": "fold change (FC)", "setting": "MDR [9]", "result": 3}, {"measurement": "fold change (FC)", "setting": "MDR [10]", "result": 4}, {"measurement": "IC50", "setting": "[11]", "result": 0.94, "unit": "µg/mL"}]}
{"molecule": "C[C@H](CCC(=O)O)C[C@H](C)C[C@H](C)C(=O)/C=C(\\O)[C@H](C)C[C@H](C)C/C=C/[C@@H](C)[C@@H](O)[C@@H](C)[C@@H](O)C[C@@H]1CC[C@@](C)([C@H]2CC[C@@](C)([C@@H](C)O)O2)O1", "note": "[IONOMYCIN]", "values": [{"measurement": "pIC50", "setting": "[12]", "result": 6.64}]}
{"molecule": "CCC(=O)O[C@H]([C@H](C)[C@H]1O[C@@]2(CC[C@@](C)([C@H]3CC[C@@](C)([C@@H]4O[C@@H]([C@H]5O[C@@](O)(CO)[C@H](C)C[C@@H]5C)C[C@@H]4C)O3)O2)C[C@H](O)[C@H]1C)[C@H](C)C(=O)O", "note": "[LAIDLOMYCIN]", "values": [{"measurement": "fold change (FC)", "setting": "[13]", "result": 700}]}
{"molecule": "CC[C@@H](C(=O)[C@@H](C)[C@@H](O)[C@H](C)[C@@H]1O[C@@H]([C@@H](CC)C(=O)O)CC[C@@H]1C)[C@H]1O[C@]2(C=C[C@@H](O)[C@]3(CC[C@@](C)([C@H]4CC[C@](O)(CC)[C@H](C)O4)O3)O2)[C@H](C)C[C@@H]1C", "note": "[SALINOMYCIN]", "values": [{"measurement": "pEC50", "setting": "PC-3", "result": "< 6.00"}, {"measurement": "pEC50", "setting": "[14]", "result": 6.42}]}
